Counter-ions that a name gives are not always drawn.

T1 sequence (P19156 whole entry): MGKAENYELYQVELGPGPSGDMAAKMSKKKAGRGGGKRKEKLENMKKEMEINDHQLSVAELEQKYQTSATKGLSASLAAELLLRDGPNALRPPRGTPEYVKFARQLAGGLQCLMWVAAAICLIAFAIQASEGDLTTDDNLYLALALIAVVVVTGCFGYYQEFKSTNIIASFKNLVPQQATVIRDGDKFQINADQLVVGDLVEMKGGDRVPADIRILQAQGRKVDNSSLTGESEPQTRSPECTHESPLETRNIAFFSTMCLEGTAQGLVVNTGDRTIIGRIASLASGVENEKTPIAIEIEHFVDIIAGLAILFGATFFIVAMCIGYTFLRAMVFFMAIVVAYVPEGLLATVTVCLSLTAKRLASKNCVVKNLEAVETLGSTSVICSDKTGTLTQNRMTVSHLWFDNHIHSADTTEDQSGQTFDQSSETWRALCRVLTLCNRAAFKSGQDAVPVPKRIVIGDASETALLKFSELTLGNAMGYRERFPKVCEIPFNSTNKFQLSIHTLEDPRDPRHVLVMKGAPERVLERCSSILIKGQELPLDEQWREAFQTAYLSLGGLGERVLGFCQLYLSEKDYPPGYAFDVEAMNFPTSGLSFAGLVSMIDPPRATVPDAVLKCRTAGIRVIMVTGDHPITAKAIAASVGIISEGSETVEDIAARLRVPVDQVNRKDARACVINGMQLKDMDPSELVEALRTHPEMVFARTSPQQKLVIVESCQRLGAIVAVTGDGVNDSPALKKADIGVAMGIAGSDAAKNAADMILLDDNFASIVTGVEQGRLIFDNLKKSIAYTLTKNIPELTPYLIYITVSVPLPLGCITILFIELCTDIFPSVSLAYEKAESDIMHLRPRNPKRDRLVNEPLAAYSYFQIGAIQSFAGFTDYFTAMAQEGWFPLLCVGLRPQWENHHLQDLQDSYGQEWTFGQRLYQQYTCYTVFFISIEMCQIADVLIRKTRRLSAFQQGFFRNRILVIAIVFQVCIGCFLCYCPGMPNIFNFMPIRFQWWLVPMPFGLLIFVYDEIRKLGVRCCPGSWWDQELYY
T1 sequence (P18434 whole entry partner): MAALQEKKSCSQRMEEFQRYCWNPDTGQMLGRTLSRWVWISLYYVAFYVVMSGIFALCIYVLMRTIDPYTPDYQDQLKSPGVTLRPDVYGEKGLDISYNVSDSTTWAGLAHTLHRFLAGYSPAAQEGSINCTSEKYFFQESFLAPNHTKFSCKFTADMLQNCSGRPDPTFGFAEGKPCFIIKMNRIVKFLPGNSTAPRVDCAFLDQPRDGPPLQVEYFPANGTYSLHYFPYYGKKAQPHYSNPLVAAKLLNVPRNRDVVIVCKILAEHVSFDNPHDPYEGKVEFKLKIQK

This assay concerns the target T1, proton pump (H+/K+-ATPase) (Sus scrofa, UniProt P19156).
T1 construct: Gastric vesicles were prepared from hog stomach via centrifugal separation; from tissue; host or cells: hog stomach (gastric vesicles, method of Rabon et al. 1988)
Description: Measurement of inhibitory effects on proton pump (H+/K+-ATPase) activities. The format is biochemical. As to conditions: hog gastric vesicles, K+-specific H+/K+-ATPase activity, Tris-HCl buffer pH 7.4, 37° C. for 40 minutes, malachite green Pi readout. The method, boiled down:
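Hog gastric vesicles in 60 mmol/l Tris-HCl pH 7.4 with 0.5% DMSO were treated with compounds at room temperature; reaction was started with 10 μl of 10 mmol/l ATP stock. Released Pi was read at 570 nm, K+-specific activity taken as the ±K+ difference. IC50 from 4-parameter logistic fit.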
In general, IC50 refers to the concentration that gives 50% inhibition. High values mean lower potency, low ones higher potency. With `CNCc1cn(S(=O)(=O)c2cccc(C(F)(F)F)c2)c2cc(Nc3ccc(C)cc3Cl)ccc12` [Example 184, N-(2-chloro-4-methylphenyl)-3-((methylamino)methyl)-1-((3-(trifluoromethyl)phenyl)sulfonyl)-1H-indol-6-amine hydrochloride], the IC50 is 360 nM.

For `CNCc1cn(S(=O)(=O)c2cccc(F)c2)c2cc(Nc3ccc(C)cc3Cl)ncc12` [Example 359, N-(2-chloro-4-methylphenyl)-1-((3-fluorophenyl)sulfonyl)-3-((methylamino)methyl)-1H-pyrrolo[3,2-c]pyridin-6-amine hydrochloride], the IC50 turned out to be 18300 nM.

For `CNCc1cn(S(=O)(=O)c2cccnc2)c2cc(N3CCCc4cc(C)ccc43)ccc12` [Example 260, N-methyl-1-(6-(6-methyl-3,4-dihydroquinolin-1(2H)-yl)-1-(pyridin-3-ylsulfonyl)-1H-indol-3-yl)methanamine hydrochloride], the IC50 was determined as 380 nM.

On to `CNCc1cn(S(=O)(=O)c2ccc(OC(F)(F)F)cc2)c2cc(Nc3ccc(C)cc3Cl)ccc12` [Example 207, N-(2-chloro-4-methylphenyl)-3-((methylamino)methyl)-1-((4-(trifluoromethoxy)phenyl)sulfonyl)-1H-indol-6-amine hydrochloride], for which half-maximal inhibition (IC50) required 550 nM.

As for `CNCc1cn(S(=O)(=O)c2cccnc2)c2cc(Nc3c(C)cc(Br)cc3C)ccc12` [Example 90, N-(4-bromo-2,6-dimethylphenyl)-3-((methylamino)methyl)-1-(pyridin-3-ylsulfonyl)-1H-indol-6-amine hydrochloride], the IC50 is 710 nM.

`CNCc1cn(S(=O)(=O)c2cccnc2)c2cc(Nc3ncccc3C)ccc12` [Example 98, 3-((methylamino)methyl)-N-(3-methylpyridin-2-yl)-1-(pyridin-3-ylsulfonyl)-1H-indol-6-amine hydrochloride] yielded an IC50 of 1920 nM.

Regarding `CNCc1cn(S(=O)(=O)c2cccc(F)c2)c2cc(Nc3ccc(Cl)nc3C)cnc12` [Example 344, N-(6-chloro-2-methylpyridin-3-yl)-1-((3-fluorophenyl)sulfonyl)-3-((methylamino)methyl)-1H-pyrrolo[3,2-b]pyridin-6-amine hydrochloride], the IC50 turned out to be 970 nM.

Turning to `CNCc1cn(S(=O)(=O)c2cccc(OC(F)(F)F)c2)c2cc(Nc3ccc(C(F)(F)F)cc3Cl)ccc12` [Example 198, N-(2-chloro-4-(trifluoromethyl)phenyl)-3-((methylamino)methyl)-1-((3-(trifluoromethoxy)phenyl)sulfonyl)-1H-indol-6-amine hydrochloride], it took 160 nM to reach half-maximal inhibition (IC50).

In the case of `CNCc1cn(S(=O)(=O)c2cccnc2)c2cc(Nc3ccc(OC)c(F)c3F)ccc12` [Example 70, N-(2,3-difluoro-4-methoxyphenyl)-3-((methylamino)methyl)-1-(pyridin-3-ylsulfonyl)-1H-indol-6-amine hydrochloride], the IC50 worked out at 300 nM.

The compound `CNCc1cn(S(=O)(=O)c2cccnc2)c2cc(Nc3ncccc3Br)ccc12` [Example 102, N-(3-bromopyridin-2-yl)-3-((methylamino)methyl)-1-(pyridin-3-ylsulfonyl)-1H-indol-6-amine hydrochloride] returned an IC50 of 2520 nM.

As for `CN(C)C(=O)c1cn(S(=O)(=O)c2cccnc2)c2cc(Nc3ccc(C(F)(F)F)cc3Cl)ccc12` [Example 325, 6-((2-chloro-4-(trifluoromethyl)phenyl)amino)-N,N-dimethyl-1-(pyridin-3-ylsulfonyl)-1H-indol-3-carboxamide], the IC50 worked out at 68000 nM.

In the case of `CNCc1cn(S(=O)(=O)c2cccnc2)c2cc(Nc3cc(F)ccc3F)ccc12` [Example 58, N-(2,5-difluorophenyl)-3-((methylamino)methyl)-1-(pyridin-3-ylsulfonyl)-1H-indol-6-amine hydrochloride], 410 nM corresponded to half-maximal inhibition (IC50).

Source of the values: patent US9676714B2, “Sulfonylindole derivatives and method for preparing the same” (Daewoong Pharmaceutical Co., Ltd., priority 2013, dated 2017).
